Experimental data taken from paper PMC10257758 (Drug development research, 2023).
Several values for one entry are separate records, joined by “and”; a condition that tells them apart may be missing. Equal entries are not always repeated.

Legend:
CA I = CA I (Homo sapiens, UniProt P00915); assay: CA-catalysed CO2 hydration stopped-flow inhibition assay, CA I; format: biochemical; details: mean from 3 assays
CA XII = CA XII (Homo sapiens, UniProt O43570); assay: CA-catalysed CO2 hydration stopped-flow inhibition assay, CA XII; format: biochemical; details: mean from 3 assays
Sequence of CA XII (O43570 25-354): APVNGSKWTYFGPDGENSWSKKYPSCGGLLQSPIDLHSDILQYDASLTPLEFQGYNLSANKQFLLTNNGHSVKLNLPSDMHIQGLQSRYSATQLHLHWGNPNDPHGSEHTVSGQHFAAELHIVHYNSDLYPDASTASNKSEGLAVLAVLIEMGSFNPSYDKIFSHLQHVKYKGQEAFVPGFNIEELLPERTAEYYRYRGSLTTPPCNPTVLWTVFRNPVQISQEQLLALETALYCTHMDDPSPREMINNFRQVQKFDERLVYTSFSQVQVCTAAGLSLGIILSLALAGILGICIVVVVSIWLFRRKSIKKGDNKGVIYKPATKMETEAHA

CA II = CA II (Homo sapiens, UniProt P00918); assay: CA-catalysed CO2 hydration stopped-flow inhibition assay, CA II; format: biochemical; details: mean from 3 assays
CA IX = CA IX (Homo sapiens, UniProt Q16790); assay: CA-catalysed CO2 hydration stopped-flow inhibition assay, CA IX; format: biochemical; details: mean from 3 assays
[1] = MTS cytotoxicity / cell viability assay; format: cell-based, human; details: human, HEK293 cells
HEK293 cells = assay: MTS cytotoxicity / cell viability assay; format: cell-based, human; details: low tumorigenic cells (HEK293)

Sequence of CA I (P00915 whole entry): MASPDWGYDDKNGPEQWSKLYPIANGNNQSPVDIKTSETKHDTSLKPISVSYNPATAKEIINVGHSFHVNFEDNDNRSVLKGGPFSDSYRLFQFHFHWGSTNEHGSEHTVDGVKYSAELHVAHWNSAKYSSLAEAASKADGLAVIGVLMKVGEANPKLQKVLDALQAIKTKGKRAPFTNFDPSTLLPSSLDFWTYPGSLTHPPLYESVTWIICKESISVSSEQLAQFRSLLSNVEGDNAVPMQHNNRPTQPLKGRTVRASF

SMILES | Ki (CA I; cells/sentences stated in nM) [nM] | Ki (CA XII; cells/sentences stated in nM) | Ki (CA I; μM unless stated) [nM] | Ki (CA II; μM unless stated) [µM] | Ki (CA IX; μM unless stated) [µM] | Ki (CA XII; μM unless stated) [nM] | Ki (CA II; cells/sentences stated in nM) | Ki (CA IX; cells/sentences stated in nM) [µM] | viability at 72 h, 100 µM [1] [%] | general cytotoxic effect (HEK293 cells)
CCOC(=O)c1cc2ccc(OCC(=O)Nc3ccc(S(N)(=O)=O)cc3)cc2oc1=O [5a, Ethyl 2-oxo-7-(2-oxo-2-((4-sulfamoylphenyl)amino)ethoxy)-2H-chromene-3-carboxylate] | 738 | 20.3 nM |  |  |  |  |  |  |  | 
CCOC(=O)c1cc2ccc(OCC(=O)Nc3ccc(S(=O)(=O)Nc4ncnc(OC)c4OC)cc3)cc2oc1=O [5b, Ethyl 7-(2-((4-(N-(5,6-dimethoxypyrimidin-4-yl)sulfamoyl)phenyl)amino)-2-oxoethoxy)-2-oxo-2H-chromene-3-carboxylate] |  |  | > 100000 | > 100 | > 100 | > 100000 |  |  |  | 
CCOC(=O)c1cc2ccc(OCC(=O)Nc3ccc(S(=O)(=O)NC(C)=O)cc3)cc2oc1=O [5c, Ethyl 7-(2-((4-(N-acetylsulfamoyl)phenyl)amino)-2-oxoethoxy)-2-oxo-2H-chromene-3-carboxylate] |  |  | > 100000 | > 100 | 6.1 | 1900 |  |  |  | 
NS(=O)(=O)c1ccc(NC(=O)c2cc3cc(Cl)ccc3oc2=O)cc1 [9b, 6-Chloro-2-oxo-N-(4-sulfamoylphenyl)-2H-chromene-3-carboxamide] | 818 | 28.4 nM |  |  |  |  | 0.064 µM and 0.0635 µM | 0.0523 |  | 
NS(=O)(=O)c1ccc(NC(=O)c2cc3cc(Br)ccc3oc2=O)cc1 [9c, 6-Bromo-2-oxo-N-(4-sulfamoylphenyl)-2H-chromene-3-carboxamide] | 1420 | 16.2 nM |  |  |  |  | 0.0854 µM | 0.0676 |  | 
NS(=O)(=O)c1ccc(NC(=O)c2cc3cc(Cl)cc(Cl)c3oc2=O)cc1 [9d, 6,8-Dichloro-2-oxo-N-(4-sulfamoylphenyl)-2H-chromene-3-carboxamide] | 2320 | 46.3 nM |  |  |  |  | 0.238 µM | 0.105 |  | 
COc1ccc2cc(C(=O)Nc3ccc(S(N)(=O)=O)cc3)c(=O)oc2c1 [9h, 7-Methoxy-2-oxo-N-(4-sulfamoylphenyl)-2H-chromene-3-carboxamide] |  |  |  |  |  |  |  | 0.0318 |  | 
COc1ccc(NS(=O)(=O)c2ccc(NC(=O)c3cc4cc(Cl)ccc4oc3=O)cc2)nn1 [11b, 6-Chloro-N-(4-(N-(6-methoxypyridazin-3-yl)sulfamoyl)phenyl)-2-oxo-2H-chromene-3-carboxamide] |  |  | > 100000 | > 100 | > 100 | > 100000 |  |  |  | 
COc1ccc(NS(=O)(=O)c2ccc(NC(=O)c3cc4cc(Cl)cc(Cl)c4oc3=O)cc2)nn1 [11d, 6,8-Dichloro-N-(4-(N-(6-methoxypyridazin-3-yl)sulfamoyl)phenyl)-2-oxo-2H-chromene-3-carboxamide] |  |  | > 100000 | > 100 | > 100 | > 100000 |  |  |  | 
Cc1nnc(NS(=O)(=O)c2ccc(NC(=O)c3cc4cc(Br)ccc4oc3=O)cc2)s1 [13c, 6-Bromo-N-(4-(N-(5-methyl-1,3,4-thiadiazol-2-yl)sulfamoyl)phenyl)-2-oxo-2H-chromene-3-carboxamide] |  |  | > 100000 | > 100 | > 100 | > 100000 |  |  |  | 
COc1cc(NS(=O)(=O)c2ccc(NC(=O)c3cc4cc(Br)ccc4oc3=O)cc2)nc(OC)n1 [14c, 6-Bromo-N-(4-(N-(2,6-dimethoxypyrimidin-4-yl)sulfamoyl)phenyl) −2-oxo-2H-chromene −3-carboxamide] |  |  | > 100000 | > 100 | > 100 | > 100000 |  |  |  | 
COc1cc(NS(=O)(=O)c2ccc(NC(=O)c3cc4ccccc4oc3=O)cc2)nc(OC)n1 [14e, N-(4-(N-(2,6-dimethoxypyrimidin-4-yl)sulfamoyl)phenyl)-2-oxo-2H-chromene-3-carboxamide] |  |  | > 100000 | > 100 | > 100 | > 100000 |  |  |  | 
COc1ccc2oc(=O)c(C(=O)Nc3cc(C(F)(F)F)c(S(N)(=O)=O)cc3S(N)(=O)=O)cc2c1 [18f, N-(2,4-disulfamoyl-5-(trifluoromethyl)phenyl)-6-methoxy-2-oxo-2H-chromene-3-carboxamide] |  |  |  |  |  |  |  |  | 97 | no general cytotoxic effect

More lines, main results first:

Ki (CA I; cells/sentences stated in nM) [nM] | Ki (CA XII; cells/sentences stated in nM) | Ki (CA I; μM unless stated) [nM] | Ki (CA II; μM unless stated) [µM] | Ki (CA IX; μM unless stated) [µM] | Ki (CA XII; μM unless stated) [nM] | Ki (CA II; cells/sentences stated in nM) | Ki (CA IX; cells/sentences stated in nM) [µM] | SMILES | viability at 72 h, 100 µM [1] [%] | general cytotoxic effect (HEK293 cells)
 |  | > 100000 | 46.8 | 0.91 | 10600 |  |  | CC(=O)NS(=O)(=O)c1ccc(NC(=O)c2cc3cc(Br)ccc3oc2=O)cc1 [15c, N-(4-(N-acetylsulfamoyl)phenyl)-6-bromo-2-oxo-2H-chromene-3-carboxamide] |  | 
 |  | > 100000 | 10.3 |  | 6300 |  |  | CC(=O)NS(=O)(=O)c1ccc(NC(=O)c2cc3ccccc3oc2=O)cc1 [15e, N-(4-(N-acetylsulfamoyl)phenyl)-2-oxo-2H-chromene-3-carboxamide] |  | 
1960 | 54.2 nM |  |  |  |  | 0.0763 µM | 0.0144 | NS(=O)(=O)c1cccc(NC(=O)c2cc3cc(Br)ccc3oc2=O)c1 [16c, 6-Bromo-2-oxo-N-(3-sulfamoylphenyl)-2H-chromene-3-carboxamide] |  | 
193 | 69.8 nM |  |  |  |  | 0.0535 µM | 0.0189 | NS(=O)(=O)c1cccc(NC(=O)c2cc3ccccc3oc2=O)c1 [16e, 2-Oxo-N-(3-sulfamoylphenyl)-2H-chromene-3-carboxamide] |  | 
774 | 52 nM and 52.1 nM |  |  |  |  | 0.212 µM | 0.005 | COc1ccc2oc(=O)c(C(=O)Nc3cccc(S(N)(=O)=O)c3)cc2c1 [16f, 6-Methoxy-2-oxo-N-(3-sulfamoylphenyl)-2H-chromene-3-carboxamide] |  | 
225 | 49.5 nM |  |  |  |  | 0.0752 µM | 0.0152 | NS(=O)(=O)c1cccc(NC(=O)c2cc3cc(F)ccc3oc2=O)c1 [16i, 6-Fluoro-2-oxo-N-(3-sulfamoylphenyl)-2H-chromene-3-carboxamide] |  | 
74.4 | 65.7 nM |  |  |  |  | 0.023 µM | 0.0196 | CCN(CC)c1ccc2cc(C(=O)OCC(=O)Nc3ccc(S(N)(=O)=O)cc3)c(=O)oc2c1 [compound 22, 2-Oxo-2-((4-sulfamoylphenyl)amino)ethyl-7-(diethylamino)-2-oxo-2H-chromene-3-carboxylate] |  | 
